Results from US20260356856A1, “KRAS G12S AND G12C INHIBITORS” (MIRATI THERAPEUTICS, INC., priority 2023, published 2026).

What was measured:
[1] = target: T1, KRas-mediated phosphorylation of ERK in MKN1 cells (Homo sapiens, UniProt P01116); experiment: Inhibition of KRas-mediated phosphorylation of ERK (HTRF), MKN1 cells; format: cell-based; details: MKN1 cells (KRas WT); HTRF pERK; 3 h incubation
T1 construct: pERK HTRF read-out
Description: Inhibition of KRas Phosphorylation of ERK (HTRF) by Exemplary Compounds of Formula (Ia) or (Ib)
Cisbio HTRF Advanced pERK Assay Catalog #64AERPEH • Cells: MKN1, PSN1 • Procedure: • 1. Day 1: Seed 6,000 cells/well −25 μl/well in 384-well white solid bottom plate; RPM1_10% FBS. Incubate overnight at 37 °C/5% CO2. • 2.

[2] = target: T2, KRas G12C (Homo sapiens, UniProt P01116, G12C); experiment: KRas binding assay, TR-FRET displacement of Cy5 labelled tracer; details: 60-minute incubation at room temperature, 1% DMSO, pH 7.5
T2 construct: Biotinylated KRas (corresponding to amino acids 1-169, produced at Accelegan Inc.); biotin (biotinylated); purchased Accelegan Inc
Outline: (§1)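 Biotinylated KRas (residues 1-169) was incubated with tracer, terbium-streptavidin and compound at 1% DMSO final in 50 mM HEPES pH 7.5 containing 5 mM MgCl2, 0.005% Tween-20 and 1 mM DTT. The plate was read after 60 min at room temperature, and percent-of-control data were fit to a 4-parameter IC50 equation.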

[3] = target: T3, KRas WT (Homo sapiens, UniProt P01116); experiment: as above; details: 60-minute incubation at room temperature, 1% DMSO, pH 7.5
T3 construct: Biotinylated KRas (corresponding to amino acids 1-169, produced at Accelegan Inc.); biotin (biotinylated); purchased Accelegan Inc
Outline: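 Assay buffer was HEPES (50 mM, pH 7.5) with MgCl2 (5 mM), DTT (1 mM) and Tween-20 (0.005%). Biotinylated KRas spanning residues 1-169 met tracer, terbium streptavidin and compound (1% DMSO, final) for 60 minutes at ambient temperature before reading. POC values were fitted for IC50.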

[4] = target: T4, KRas G12S (Homo sapiens, UniProt P01116, G12S); experiment: as above; details: 60-minute incubation at room temperature, 1% DMSO, pH 7.5
T4 construct: Biotinylated KRas (corresponding to amino acids 1-169, produced at Accelegan Inc.); biotin (biotinylated); purchased Accelegan Inc
Outline: as §1

[5] = target: T5, KRas-mediated phosphorylation of ERK in H358 cells (Homo sapiens, UniProt P01116, G12C); experiment: Inhibition of KRas-mediated phosphorylation of ERK (HTRF), H358 cells; format: cell-based; details: HTRF pERK, 3 h incubation
T5 construct: pERK HTRF read-out

[6] = target: T6, KRas-mediated phosphorylation of ERK in A549 cells (Homo sapiens, UniProt P01116, G12S); experiment: Inhibition of KRas-mediated phosphorylation of ERK (HTRF), A549 cells; format: cell-based; details: HTRF pERK, 3 h incubation
T6 construct: pERK HTRF read-out
T6 sequence (P01116 1-188 isoform P01116-2 G12S): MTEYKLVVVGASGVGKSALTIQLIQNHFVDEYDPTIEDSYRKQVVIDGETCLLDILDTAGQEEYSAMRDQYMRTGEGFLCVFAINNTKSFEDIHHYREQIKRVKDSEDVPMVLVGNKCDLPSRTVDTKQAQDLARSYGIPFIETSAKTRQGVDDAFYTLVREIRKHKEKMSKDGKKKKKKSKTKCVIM

T1 sequence (P01116 1-188 isoform P01116-2): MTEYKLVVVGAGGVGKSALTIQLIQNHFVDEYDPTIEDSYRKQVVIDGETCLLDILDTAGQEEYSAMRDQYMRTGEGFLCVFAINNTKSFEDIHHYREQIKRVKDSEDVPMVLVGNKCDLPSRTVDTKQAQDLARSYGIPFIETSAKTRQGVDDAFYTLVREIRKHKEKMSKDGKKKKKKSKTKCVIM
T4 sequence (P01116 1-169 isoform P01116-2 G12S): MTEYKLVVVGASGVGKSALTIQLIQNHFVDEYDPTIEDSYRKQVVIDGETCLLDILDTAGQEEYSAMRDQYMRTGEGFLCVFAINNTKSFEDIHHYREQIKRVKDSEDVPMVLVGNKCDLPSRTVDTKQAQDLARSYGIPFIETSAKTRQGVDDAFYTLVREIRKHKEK
T5 sequence (P01116 1-188 isoform P01116-2 G12C): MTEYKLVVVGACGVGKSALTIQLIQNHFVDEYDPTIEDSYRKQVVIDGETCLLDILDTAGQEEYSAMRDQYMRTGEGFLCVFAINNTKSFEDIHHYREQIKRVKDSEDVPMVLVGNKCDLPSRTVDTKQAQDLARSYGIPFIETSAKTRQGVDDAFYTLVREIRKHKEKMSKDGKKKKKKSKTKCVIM
T3 sequence (P01116 1-169 isoform P01116-2): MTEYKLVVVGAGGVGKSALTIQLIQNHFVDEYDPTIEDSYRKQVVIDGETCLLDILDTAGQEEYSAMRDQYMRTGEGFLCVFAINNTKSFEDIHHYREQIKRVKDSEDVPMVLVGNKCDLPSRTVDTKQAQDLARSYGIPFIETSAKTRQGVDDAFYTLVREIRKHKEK
T2 sequence (P01116 1-169 isoform P01116-2 G12C): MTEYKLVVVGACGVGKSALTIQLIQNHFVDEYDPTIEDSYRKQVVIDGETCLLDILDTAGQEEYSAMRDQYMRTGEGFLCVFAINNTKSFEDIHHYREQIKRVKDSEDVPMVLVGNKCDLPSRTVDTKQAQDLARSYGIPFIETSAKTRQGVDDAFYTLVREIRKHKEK

| SMILES | IC50 [1] | IC50 [2] | IC50 [3] | IC50 [4] | IC50 [5] | IC50 [6] |
| --- | --- | --- | --- | --- | --- | --- |
| CCc1c(F)ccc2cc(O)cc(-c3ncc4c(N5CCCCC(C(=O)n6ccc(C)n6)C5)nc(OC[C@@]56CCCN5C[C@H](F)C6)nc4c3F)c12 (stereo partly drawn) [Example 68, (1-(7-(8-ethyl-7-fluoro-3-hydroxynaphthalen-1-yl)-8-fluoro-2-(((2R,7aS)-2-fluorotetrahydro-1H-pyrrolizin-7a(5H)-yl)methoxy)pyrido[4,3-d]pyrimidin-4-yl)azepan-3-yl)(3-methyl-1H-pyrazol-1-yl)methanone] | 12 nM | 5 nM | 10 nM | 6 nM | 34 nM | 77 nM |
| CCc1c(F)ccc2cc(O)cc(-c3ncc4c(N5CCC(C(=O)n6cc(N(C)C)cn6)CC5)nc(OC[C@@]56CCCN5C[C@H](F)C6)nc4c3F)c12 [Example 64, (4-(dimethylamino)-1H-pyrazol-1-yl)(1-(7-(8-ethyl-7-fluoro-3-hydroxynaphthalen-1-yl)-8-fluoro-2-(((2R,7aS)-2-fluorotetrahydro-1H-pyrrolizin-7a(5H)-yl)methoxy)pyrido[4,3-d]pyrimidin-4-yl)piperidin-4-yl)methanone] | 4500 nM | 13 nM | 32 nM | 40 nM | 4600 nM | 119 nM |
| CCc1c(F)ccc2cc(O)cc(-c3ncc4c(N5CCC(C(=O)n6ccc(OC)n6)CC5)nc(OC[C@@]56CCCN5C[C@H](F)C6)nc4c3F)c12 [Example 61, (1-(7-(8-ethyl-7-fluoro-3-hydroxynaphthalen-1-yl)-8-fluoro-2-(((2R,7aS)-2-fluorotetrahydro-1H-pyrrolizin-7a(5H)-yl)methoxy)pyrido[4,3-d]pyrimidin-4-yl)piperidin-4-yl)(3-methoxy-1H-pyrazol-1-yl)methanone] | 2610 nM | 336 nM | 136 nM | 34 nM | 8570 nM | 84 nM |
| CCc1c(F)ccc2cc(O)cc(-c3ncc4c(N(C)CCN(C)C(=O)n5cncn5)nc(OC[C@@]56CCCN5C[C@H](F)C6)nc4c3F)c12 [Example 223, N-(2-((7-(8-ethyl-7-fluoro-3-hydroxynaphthalen-1-yl)-8-fluoro-2-(((2R,7aS)-2-fluorotetrahydro-1H-pyrrolizin-7a(5H)-yl)methoxy)pyrido[4,3-d]pyrimidin-4-yl)(methyl)amino)ethyl)-N-methyl-1H-1,2,4-triazole-1-carboxamide] | 569 nM | 42 nM | 164 nM | 53 nM | 17 nM | 2390 nM |
| Cc1ccn(C(=O)CCNc2cc(-c3noc4c3CCC[C@@]43CCCc4sc(N)c(C#N)c43)nc(N3CCNC[C@@H]3C)n2)n1 [Example 321, (S)-2-amino-3′-(6-((3-(3-methyl-1H-pyrazol-1-yl)-3-oxopropyl)amino)-2-((S)-2-methylpiperazin-1-yl)pyrimidin-4-yl)-5′,6,6′,7-tetrahydro-4′H,5H-spiro[benzo[b]thiophene-4,7′-benzo[d]isoxazole]-3-carbonitrile] | 861 nM | 14 nM | 28 nM | 21 nM | 1060 nM | 192 nM |
| CCc1c(F)ccc2cc(O)cc(-c3ncc4c(N5CCN(C(=O)n6ccc(C)n6)C6(CC6)C5)nc(OC[C@@]56CCCN5C[C@H](F)C6)nc4c3F)c12 (single isomer, unassigned) [Example 78] | 90 nM | 128 nM | 25 nM | 146 nM | 1250 nM | 3820 nM |
| CCc1c(F)ccc2cc(O)cc(-c3ncc4c(N5CCN(C(=O)n6ccnc6)CC5)nc(OC[C@@]56CCCN5C[C@H](F)C6)nc4c3F)c12 [Example 150, (4-(7-(8-ethyl-7-fluoro-3-hydroxynaphthalen-1-yl)-8-fluoro-2-(((2R,7aS)-2-fluorotetrahydro-1H-pyrrolizin-7a(5H)-yl)methoxy)pyrido[4,3-d]pyrimidin-4-yl)piperazin-1-yl)(1H-imidazol-1-yl)methanone] | 40 nM | 5 nM | 2 nM | 3 nM | 39 nM | 1580 nM |
| CCc1c(F)ccc2cc(O)cc(-c3ncc4c(N5CCC(C(=O)n6cccn6)CC5)nc(OC[C@@]56CCCN5C[C@H](F)C6)nc4c3F)c12 [Example 4, (1-(7-(8-ethyl-7-fluoro-3-hydroxynaphthalen-1-yl)-8-fluoro-2-(((2R,7aS)-2-fluorotetrahydro-1H-pyrrolizin-7a(5H)-yl)methoxy)pyrido[4,3-d]pyrimidin-4-yl)piperidin-4-yl)(1H-pyrazol-1-yl)methanone] | 2040 nM | 22 nM | 51 nM | 9 nM | 5440 nM | 69 nM |
| CCc1c(F)ccc2cc(O)cc(-c3ncc4c(N5CCCN(C(=O)n6ccc(C)n6)CC5)nc(OC[C@@]56CCCN5C[C@H](F)C6)nc4c3F)c12 [Example 69, (4-(7-(8-ethyl-7-fluoro-3-hydroxynaphthalen-1-yl)-8-fluoro-2-(((2R,7aS)-2-fluorotetrahydro-1H-pyrrolizin-7a(5H)-yl)methoxy)pyrido[4,3-d]pyrimidin-4-yl)-1,4-diazepan-1-yl)(3-methyl-1H-pyrazol-1-yl)methanone] | 31 nM | 79 nM | 6 nM | 124 nM | 1120 nM | 4810 nM |

Further lines, results first:

| IC50 [1] | IC50 [2] | IC50 [3] | IC50 [4] | IC50 [5] | IC50 [6] | SMILES |
| --- | --- | --- | --- | --- | --- | --- |
| 2420 nM | 502 nM | 483 nM | 266 nM | 1420 nM | 334 nM | CCc1c(F)ccc2cc(O)cc(-c3ncc4c(N5CCCC(C(=O)n6ccc(C)n6)CCC5)nc(OC[C@@]56CCCN5C[C@H](F)C6)nc4c3F)c12 [Example 54, (1-(7-(8-ethyl-7-fluoro-3-hydroxynaphthalen-1-yl)-8-fluoro-2-(((2R,7aS)-2-fluorotetrahydro-1H-pyrrolizin-7a(5H)-yl)methoxy)pyrido[4,3-d]pyrimidin-4-yl)azocan-5-yl)(3-methyl-1H-pyrazol-1-yl)methanone] |
| 408 nM | 9 nM | 163 nM | 85 nM | 9 nM | 115 nM | COc1ccccc1OC(=O)C1CCN(c2nc(OC[C@@]34CCCN3C[C@H](F)C4)nc3c(F)c(-c4ccc(F)c5sc(N)c(C#N)c45)c(Cl)cc23)CC1 [Example 300, 2-methoxyphenyl 1-(7-(2-amino-3-cyano-7-fluorobenzo[b]thiophen-4-yl)-6-chloro-8-fluoro-2-(((2R,7aS)-2-fluorotetrahydro-1H-pyrrolizin-7a(5H)-yl)methoxy)quinazolin-4-yl)piperidine-4-carboxylate] |
| 217 nM | 17 nM | 154 nM | 80 nM | 16 nM | 169 nM | N#Cc1c(N)sc2c(F)ccc(-c3c(Cl)cc4c(N5CCC(C(=O)Oc6ccccc6Cl)CC5)nc(OC[C@@]56CCCN5C[C@H](F)C6)nc4c3F)c12 [Example 298, 2-chlorophenyl 1-(7-(2-amino-3-cyano-7-fluorobenzo[b]thiophen-4-yl)-6-chloro-8-fluoro-2-(((2R,7aS)-2-fluorotetrahydro-1H-pyrrolizin-7a(5H)-yl)methoxy)quinazolin-4-yl)piperidine-4-carboxylate] |
| 431 nM | 3 nM | 10 nM | 4 nM | 16 nM | 12 nM | CN(C)CCc1ccn(C(=O)C2CCCN(c3nc(OC[C@@]45CCCN4C[C@H](F)C5)nc4c(F)c(-c5ccc(F)c6sc(N)c(C#N)c56)c(Cl)cc34)CC2)n1 (stereo partly drawn) [Example 219, 2-amino-4-(6-chloro-4-(4-(3-(2-(dimethylamino)ethyl)-1H-pyrazole-1-carbonyl)azepan-1-yl)-8-fluoro-2-(((2R,7aS)-2-fluorotetrahydro-1H-pyrrolizin-7a(5H)-yl)methoxy)quinazolin-7-yl)-7-fluorobenzo[b]thiophene-3-carbonitrile] |
| 62 nM | 6 nM | 9 nM | 5 nM | 3 nM | 4 nM | Cc1ccn(C(=O)C2CCCN(c3nc(OC[C@@]45CCCN4C[C@H](F)C5)nc4c(F)c(-c5ccc(F)c6sc(N)c(C#N)c56)c(C(F)(F)F)cc34)CC2)n1 (stereo partly drawn) [Example 272, 2-amino-7-fluoro-4-(8-fluoro-2-(((2R,7aS)-2-fluorotetrahydro-1H-pyrrolizin-7a(5H)-yl)methoxy)-4-(4-(3-methyl-1H-pyrazole-1-carbonyl)azepan-1-yl)-6-(trifluoromethyl)quinazolin-7-yl)benzo[b]thiophene-3-carbonitrile] |
